System: Plasmopara viticola
Assay: Activity against peronospora of grapevines caused by Plasmopara viticola (protective spray of potted vines, cultivar Riesling)
Format: in vivo
Settings: individual active compound, untreated control 84% infection
Protocol: The active compounds, separately or jointly, were prepared as a stock solution comprising 0.25% by weight of active compound in acetone or DMSO. 1% by weight of the emulsifier Uniperol® EL (wetting agent having emulsifying and dispersant action based on ethoxylated alkylphenols) was added to this solution, and the mixture was diluted with water to the desired concentration.
Use Example—Activity Against peronospora of Gravevines Caused by Plasmopara viticola
Leaves of potted vines of the cultivar “Riesling” were sprayed to runoff point with an aqueous suspension having the concentration of active compound stated below. The next day, the undersides of the leaves were inoculated with an aqueous zoospore suspension of Plasmopara viticola. The grapevines were then initially placed in a water-vapor-saturated chamber at 24° C. for 48 hours and then in a greenhouse at 20-30° C. for 5 days. After this period of time, the plants were again placed in a humid chamber for 16 hours to promote sporangiophore eruption. The extent of the development of the disease on the undersides of the leaves was then determined visually.
The visually determined percentages of infected leaf areas were converted into efficacies in % of the untreated control:
The efficacy (E) is calculated as follows using Abbot's formula: E=(1−α/β)·100 • α corresponds to the fungicidal infection of the treated plants in % and • β corresponds to the fungicidal infection of the untreated (control) plants in %
An efficacy of 0 means that the infection level of the treated plants corresponds to that of the untreated control plants; an efficacy of 100 means that the treated plants were not infected.
The expected efficacies of combinations of active compounds were determined using Colby's formula (Colby, S. R. “Calculating synergistic and antagonistic responses of herbicide combinations”, Weeds, 15, pp. 20-22, 1967) and compared with the observed efficacies.
Colby's Formula: E=x+y−x·y/100 • E expected efficacy, expressed in % of the untreated control, when using the mixture of the active compounds A and B at the concentrations a and b • x efficacy, expressed in % of the untreated control, when using the active compound A at the concentration a • y efficacy, expressed in % of the untreated control, when using the active compound B at the concentration b

[1] = 4 ppm in the spray liquor, vines Riesling

Row | SMILES | Efficacy in % of the untreated control [1] [%] | Efficacy in % of the untreated control (1 ppm in the spray liquor (cell prints 161 = 16 and 1)) [%] | Efficacy in % of the untreated control (16 ppm in the spray liquor (cell prints 161 = 16 and 1)) [%]
1 | CC1CCN(c2c(-c3c(F)cc(F)cc3F)c(Cl)nc3ncnn23)CC1 [I, 5-chloro-7-(4-methylpiperidin-1-yl)-6-(2,4,6-trifluorophenyl)-[1,2,4]triazolo[1,5-a]pyrimidine] | 52 |  | 
2 | C[C@H](Nc1c(-c2c(F)cc(F)cc2F)c(Cl)nc2ncnn12)C(F)(F)F [B] | 52 |  | 
3 | CC1CCN(c2c(-c3c(F)cccc3Cl)c(Cl)nc3ncnn23)CC1 [A] | 16 |  | 
4 | Fc1ccc(Oc2ccnc3cc(Cl)cc(Cl)c23)cc1 [II (quinoxyfen), 5,7-dichloro-4-(4-fluorophenoxy)quinoline] |  | 0 | 16

Source: patent publication US20060293346A1, “Fungicidal mixtures” (priority 2003, published 2006)
